Consider seven compounds from publication PMC3577726 (PLoS ONE, 2013).

The subject of data set [1] is Male C57BL/6J mice. Kind of data set: Serum insulin concentration after intraperitoneal or oral treatment, with or without sitagliptin and exendin(9–39). The class given is in vivo, mouse. Particulars: for Serum insulin concentration, i.p. 7 µg/kg alone / Serum insulin concentration, oral 10 µg/kg: blood 20 min later; for Serum insulin concentration, i.p. 7 µg/kg alone: four to six mice; for Serum insulin concentration, oral 10 µg/kg: 10 µg/kg orally, with or without sitagliptin and exendin(9–39). The method, then:
(§1) Male C57BL/6J mice (Jackson Laboratory, Bar Harbor, ME) were maintained in a specific pathogen-free facility under a 12 h-light, 12 h-dark cycle and were moved to a conventional facility for experiments at 6 to 8 weeks of age. All animal experiments were approved by the animal ethics committee of Kyushu University. Animals were anesthetized with sevoflurane and blood (maximally up to 100 µl) was collected from the orbital plexus of mice treated as indicated. Dipeptidyl peptidase (DPP)-IV inhibitor (Merck-Millipore, Billerica, MA) was added to the samples to a final concentration of 100 µM.
(B, C) Mice deprived of food for 5 h (blood glucose level, 103.5 mg/dl) were administered sitagliptin (1 µg/kg) or saline orally and then 30 min later were treated with ucOC or GlaOC intraperitoneally (7 µg/kg) (B) or orally (10 µg/kg) (C) in combination with intraperitoneal injection of exendin(9–39) (25 nmol/kg) or saline. […] All data are means ± SEM for four to six mice. *P < 0.05, **P < 0.01, †P = 0.06 versus control (open bar) or for the indicated comparisons (Student's t test).

The test system of data set [2] is Male C57BL/6J mice. The data set is described as follows: Serum GLP-1 concentration after intraperitoneal administration of OC. The format is in vivo, mouse. The method, then: (§2) Figure 3 Effect of intraperitoneal or oral administration of OC on serum GLP-1 concentration. (A) Mice were deprived of food for 5 h and then injected intraperitoneally with saline (control) or the indicated doses of recombinant ucOC, of GlaOC. Blood was collected 20 min later for determination of the serum concentration of GLP-1. Part of mice was orally administered with sitagliptin (1 µg/kg) 30 min before injection of OC. (B) Mice deprived of food for 5 h were treated orally with saline (control) or the indicated doses of ucOC or GlaOC. Blood samples collected 20 min later were assayed for serum GLP-1 concentration. All data are means ± SEM for five to seven mice. *P < 0.05, **P < 0.01 versus control (Student's t test).

The next data set relates to STC-1 cells. The data set is described as follows: GLP-1 secretion from STC-1 cells (ELISA of culture supernatant). The class given is cell-based, mouse. The protocol: STC-1 cells (kindly provided from Dr. G. Tsujimoto, Kyoto University), a mouse enteroendocrine cell line were cultured under a humidified atmosphere of 5% CO2 at 37 °C in Dulbecco's modified Eagle's medium supplemented with 15% horse serum, 5% fetal bovine serum, penicillin (100 U/ml), and streptomycin (0.1 mg/ml). The cells were routinely passaged at 80 to 90% confluence.
STC-1 cells in a six-well plate were washed three times and then incubated with recombinant mouse ucOC or with GlaOC (ANA Spec, Fremont, CA) in Hanks' balanced salt solution for 60 min at 37 °C. The culture supernatants were then assayed for GLP-1 with ELISA kit (Shibayagi, Gunma, Japan).
Figure 2 OC-induced GLP-1 secretion in STC-1 cells. STC-1 cells were incubated for 60 min with vehicle (control) or the indicated concentrations of ucOC, GlaOC, or PMA. Data are expressed relative to the control value (33.1 pg per 1 × 10^5 cells) and are means ± SEM from four to eight independent experiments. *P < 0.05, **P < 0.01 versus control (Student's t test).

The subject of data set [3] is Male C57BL/6J mice. The method, then:
as §1

For data set [4], the system named is Male C57BL/6J mice. Kind of data set: Serum GLP-1 concentration after oral administration of OC. The class given is in vivo, mouse. Conditions: mice fasted 5 h, no sitagliptin pretreatment, blood 20 min later, five to seven mice. The method, then:
as §2

For data set [5] the following is noted: mouse, in vivo. The method, then: Serum OC concentrations were measured with ELISA kit for mouse OC (Biomedical Technologies), which is formulated for both ucOC and GlaOC, with the two forms being discriminated with the use of hydroxyapatite. Serum (50 µl) was thus mixed with 10 mg of hydroxyapatite (Sigma-Aldrich) and rotated at 4 °C for 1 h, after which the hydroxyapatite (and bound GlaOC) was removed by centrifugation and the supernatant was assayed for ucOC.
Figure 5 Serum levels of total OC and ucOC after intraperitoneal or oral administration of ucOC or GlaOC. Serum levels of total OC (A) or ucOC (B) were measured 20 min after administration of ucOC or GlaOC at a dose of 7 µg/kg intraperitoneally (i.p.) or 10 µg/kg orally (p.o.) in mice that had been deprived of food for 5 h; black circles indicate values for individual mice, with the horizontal bars representing the mean values. *P < 0.05 versus saline-treated animals [one-way ANOVA followed by either Dunnett's multiple-comparison test (A) or Tukey's HSD post hoc test (B)].

Data set [6] can be described thus: Absorption of 125I-labeled ucOC into the systemic circulation (blood radioactivity). The format is in vivo, mouse. Conditions: n = 5 each. The protocol: An expression vector for a glutathione S-transferase-ucOC fusion protein was constructed by introduction of mouse OC cDNA into the vector pGEX-4T-1 (GE Healthcare, Buckinghamshire, UK). The fusion protein was produced in bacteria and purified with glutathione-Sepharose beads (GE Healthcare) according to standard procedures. The final washes of the beads were performed with a buffer containing 0.1% Triton X-114 (Sigma-Aldrich, St. Louis, MO) and then with the same buffer without detergent in order to remove endotoxin [17]. […] The purity of the ucOC preparation was assessed by sodium dodecyl sulfate-polyacrylamide gel electrophoresis with Tris-Tricine and staining with Coomassie blue, and the concentration and integrity of the protein were determined with an enzyme-linked immunosorbent assay (ELISA) kit for mouse OC (Biomedical Technologies, Stoughton, MA). […]
Figure 6 Absorption of ^125I-labeled ucOC into the systemic circulation. Mice were administered ^125I-labeled ucOC (5 µg/kg, 4,000 to 6,000 cpm) intraperitoneally (circles, n = 5) or orally (squares, n = 5), and blood was collected into tubes containing 5 mM EDTA (to prevent coagulation) at 30 and 60 min thereafter for measurement of radioactivity. The percentage of the administered radioactivity present in the circulation was calculated assuming a total blood volume of 2 ml. […]

For data set [7] the following is noted: cited from earlier work.

No end group written: not given here.

For `N[C@@H](CC(=O)N1CCn2c(nnc2C(F)(F)F)C1)Cc1cc(F)c(F)cc1F` [Sitagliptin, sitagliptin, reference compound], in the data set on Male C57BL/6J mice [1] (mice fasted 5 h, sitagliptin 1 µg/kg orally), the “Serum insulin concentration, sitagliptin alone” value is “small increase in the serum insulin concentration”.

As to “GlaOC: γ-carboxylated form of the bone-derived protein osteocalcin (ANA Spec) (YLGASVPSPDPLEPTREQCELNPACDELSDQYGLKTAYKRIYGITI; ends and bridges not checked; also: γ-carboxylated on three glutamic acid residues (places not given here); UniProt P86546 50-95, looked up)”, the “Serum insulin concentration, i.p. 7 µg/kg alone” value in the data set with Male C57BL/6J mice [1] (mice fasted 5 h, 7 µg/kg i.p.) is recorded as “no effect on serum insulin”. Moreover, the “Serum insulin concentration, oral 10 µg/kg” value in the data set with Male C57BL/6J mice [1] (mice fasted 5 h) is on record as “tended to increase serum insulin, although this effect did not achieve statistical significance”. Further, in the data set with Male C57BL/6J mice [2] (mice fasted 5 h, oral sitagliptin 1 µg/kg 30 min before, i.p., blood 20 min later), the “Serum GLP-1 level, i.p., sitagliptin-pretreated mice” value is “did not increase the serum GLP-1 level”. Moreover, in the data set with STC-1 cells (60 min), the “Effect on GLP-1 secretion at the concentrations examined” value is given as “did not affect GLP-1 secretion”. Also, in the data set on Male C57BL/6J mice [3] (fasted mice, data not shown), the “Serum GLP-1 level after tail vein injection of GlaOC” value is “no effect” and the “Serum insulin level after tail vein injection of GlaOC” value is given as “no effect”. Also, in the data set on Male C57BL/6J mice [4], the “Serum GLP-1 concentration after oral administration” value is reported as “a similar effect was apparent”.

For “Osteocalcin (YLGASVPSPDPLEPTREQCELNPACDELSDQYGLKTAYKRIYGITI; ends and bridges not checked; cysteine pairing not given here; UniProt P86546 50-95, looked up) [osteocalcin, a peptide composed of 46 amino acids; form (uc- or Gla-) not specified at the place]”, in data set [5], the “Absorption rate at fivefold higher oral dose” value amounted to 0.8% and the “Absorption rate at twofold higher oral dose” value came to 2%.

“^125I-labeled ucOC: ucOC iodinated with Na^125I as GST fusion, released with thrombin (YLGASVPSPDPLEPTREQCELNPACDELSDQYGLKTAYKRIYGITI; ends and bridges not checked; also: 125I label, site not given here; UniProt P86546 50-95, looked up)”: in data set [6] (5 µg/kg (4,000 to 6,000 cpm) i.p. or orally, assuming total blood volume of 2 ml), the “Gross absorption, % of the administered radioactivity in the circulation at 30 min” value is on record as 2 to 8%. Besides, the “Blood radioactivity at 60 min compared with 30 min” value in data set [6] (5 µg/kg i.p. or orally) is “increased further or decreased to a small extent”.

Consider calcitonin, for which, in data set [7], the “Rate of absorption from the intestine into the bloodstream” value is recorded as around 5%.

In the case of exendin(9–39) [reference compound], the “Antagonism of the exendin-4-induced increase in serum insulin” value in the data set on Male C57BL/6J mice [1] (exendin(9–39) 25 nmol/kg i.p. 30 min before exendin-4 25 nmol/kg i.p.) is on record as “sensitive to prior injection of exendin(9–39)”. Further, the “Effect of exendin(9–39) on the sitagliptin-induced increase in serum insulin” value in the data set with Male C57BL/6J mice [1] (sitagliptin orally, exendin(9–39) i.p., data not shown) was “blocked by administration of exendin(9–39)”.

On to “uncarboxylated osteocalcin (YLGASVPSPDPLEPTREQCELNPACDELSDQYGLKTAYKRIYGITI; ends and bridges not checked; cysteine pairing not given here; UniProt P86546 50-95, looked up) [ucOC, recombinant mouse uncarboxylated osteocalcin, cleaved from a glutathione S-transferase fusion protein produced in bacteria]”, for which the “Serum insulin concentration, i.p. 7 µg/kg alone” value in the data set with Male C57BL/6J mice [1] (mice fasted 5 h, 7 µg/kg i.p.) is reported as “significant increase”. In the data set with Male C57BL/6J mice [1] (mice fasted 5 h), the “Serum insulin concentration, oral 10 µg/kg” value is “Essentially identical results”. Also, in the data set on Male C57BL/6J mice [1] (oral sitagliptin 1 µg/kg 30 min before 7 µg/kg i.p.), the “Serum insulin increase, i.p. 7 µg/kg with sitagliptin pretreatment” value is given as “enhanced by sitagliptin”. In the data set with Male C57BL/6J mice [1] (oral sitagliptin 1 µg/kg, 7 µg/kg i.p., exendin(9–39) 25 nmol/kg i.p.), the “Serum insulin increase, i.p. 7 µg/kg with sitagliptin and exendin(9–39)” value is reported as “abolished by exendin(9–39)”. The “Serum GLP-1 concentration, i.p., without sitagliptin” value in the data set with Male C57BL/6J mice [2] (mice fasted 5 h, blood 20 min after i.p. injection, no DPP-IV inhibitor pretreatment, five to seven mice) is listed as “increase in the serum concentration of GLP-1, but with only statistically insignificance”. Moreover, the “Serum GLP-1 concentration, i.p. 7 µg/kg, sitagliptin-pretreated” value with Male C57BL/6J mice [2] (mice fasted 5 h, oral sitagliptin 1 µg/kg 30 min before, 7 µg/kg i.p., blood 20 min later) is on record as “significant increase”. In the data set with Male C57BL/6J mice [2] (mice fasted 5 h, oral sitagliptin 1 µg/kg 30 min before, 10 µg/kg i.p., blood 20 min later), the “Serum GLP-1 concentration, i.p. 10 µg/kg, sitagliptin-pretreated” value is given as “no such effect”. Also, in the data set with Male C57BL/6J mice [2] (mice, i.p. >7 µg/kg), the “Effect on GLP-1 secretion at intraperitoneal doses of >7 µg/kg” value was “markedly diminished”. In addition, the “Effect on GLP-1 secretion at 30 ng/ml” value in the data set on STC-1 cells (60 min, 30 ng/ml) is reported as “no longer apparent”. Also, in the data set with STC-1 cells (>10 ng/ml), the “Effect on GLP-1 secretion at concentrations of >10 ng/ml” value was “markedly diminished”. Besides, the “Serum concentration of GLP-1 at 30 min after i.v. injection” value in the data set on Male C57BL/6J mice [3] (30 ng per animal, tail vein, mice fasted 5 h) was “further increased”. For the same compound, the “Serum concentration of insulin after i.v. injection” value in the data set on Male C57BL/6J mice [3] (30 ng per animal, tail vein, mice fasted 5 h, 15 and 30 min) is “increased as well”. In addition, in the data set with Male C57BL/6J mice [3] (30 ng per animal, tail vein, mice fasted 5 h, four to six mice), the “Serum concentration of GLP-1 at 15 min after i.v. injection” value is reported as “significantly increased”. For the same compound, in the data set with Male C57BL/6J mice [3] (300 ng per animal i.v., fasted mice, data not shown), the “Serum insulin concentration after i.v. 300 ng” value is listed as “no effect on the serum insulin concentration”. Also, in the data set on Male C57BL/6J mice [3] (mouse, in vivo, iv), the “Blood concentration after i.v. 300 ng” value is 28 nM, the “Expected initial serum concentration after i.v. 30 ng” value is around 30 ng/mL and the “Initial concentration in blood after i.v. 30 ng” value was determined as 2.7 nM. Besides, the “Serum GLP-1 concentration after oral administration” value in the data set on Male C57BL/6J mice [4] is listed as “increased the serum concentration of GLP-1 in a dose-dependent manner”.
